Source: patent publication US20260306460A1, “COMPOSITION FOR REMOVING AND INHIBITING SENESCENT CELLS, AND USES THEREOF” (LIFECEUTIX CO., LTD., priority 2023, published 2026)

What was measured:
[1] = system: naturally aged mice; experiment: Anti-aging evaluation in naturally aged mice, Example 31, Table 55; type: in vivo, mouse; settings: for Femur Ctsk mRNA / Kidney Agtr1a mRNA / Liver IL6 mRNA / Liver MMP3 mRNA / Liver p16 mRNA / Open Field Test Time in Center: untreated = 100%; for Heart Sur2a mRNA / Joint Col2a1 mRNA / Skin Col1a1 mRNA / Skin SDF1 mRNA: untreated = 1.0; for Muscle Mass: untreated 0.64 g; for Fat Mass: untreated 0.82 g; for Cataract incidence: untreated 83%;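 as to all read-outs here: Vehicle-dosed control mice received solution alone at matching volume, values compare test-compound-treated aged mice against that control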
[2] = system: naturally aged mice; experiment: Open field test in naturally aged mice, Example 15; type: in vivo, mouse; settings: untreated aged = 100%; 5 days; doses as p16 mRNA
Method: In the same manner as in Example 7-1 of WO2023-085787 A1, naturally aged mice were administered LX-405 (5% DMSO in PBS solution, 10 mg/kg, intraperitoneal administration), LX-801 (PBS, 100 mg/kg, intraperitoneal administration), LX-1102 (0.5% CMC-Na solution, 100 mg/kg, oral administration), LX-1801 (PBS, 50 mg/kg, intraperitoneal administration), LX-2101 (0.5% CMC-Na solution, 10 mg/kg, intraperitoneal administration), and LX-3403 (mouse anti-PD-1 antibody (BioXcell), 100 μg, intraperitoneal administration) for 5 days under the following conditions. The control group was administered only the solution in the same volume. After drug administration was completed, the method described in each Example below was performed. The mouse was sacrificed in the same manner as Example 7-2 and 7-6 of WO2023-085787 A1. Total RNA was extracted from liver tissue, and qRT-PCR was performed and analyzed using synthesized cDNA. […] The mRNA amounts of p16, MMP3, and IL6 after natural aging were induced were calculated as 100% and compared them with the mRNA amounts of p16, MMP3, and IL6 after treatment with the test compound. Furthermore, an open field test was performed to analyze aging-related frailty in mice using the same method as Example 7-7 of WO2023-085787 A1. […] The amount of activity evaluated after inducing aging was calculated as 100% and compared it with the amount of activity evaluated after treatment with the test compound.

[3] = system: doxorubicin-induced aged C57BL6J mice; experiment: Kidney damage (urea, creatinine, Agtr1a mRNA) in doxorubicin-aged mice, Example 22-9, Table 38; type: in vivo, mouse; settings: amount after aging calculated as 100%; for Creatinine / Urea: serum
Method: Eight-week-old male C57BL6J mice (KRIBB Laboratory Animal Resource Center) were acclimated to the experimental environment for one week. Afterwards, the anticancer agent doxorubicin was administered intraperitoneally at a concentration of 10 mg/kg, inducing aging for more than 10 days. The aging-induced mice were randomly assigned to experimental and control groups. LX-403 was mixed with a 10% ethanol solution of PEG400 and administered orally at a concentration of 25 mg/kg or intradermally at a concentration of 1 μM for 21 days. LX-1801 was mixed in distilled water with 4% DMSO, 30% PEG300, and 5% Tween80 and administered intradermally at a concentration of 0.4 μM daily for 21 days. LX-2001 was mixed in PBS and administered intradermally at a concentration of 2 μM daily for 21 days. LX-2002 was mixed in distilled water with 4% DMSO, 30% PEG300, and 5% Tween80 and administered intradermally at a concentration of 2 μM daily for 21 days. […] LX-2005 was mixed in distilled water with 4% DMSO, 30% PEG300, and 5% Tween80 and administered intradermally at a concentration of 90 μM daily for 21 days. LX-2007 was mixed in distilled water with 4% DMSO, 30% PEG300, and 5% Tween80 and administered intradermally at a concentration of 90 μM daily for 21 days. […] LX-3002 was mixed in distilled water with 4% DMSO, 30% PEG300, and 5% Tween80 and administered orally at a concentration of 10 mg/kg daily for 21 days. […] LX-5411 was mixed in 5% phosphate-buffered saline (PBS) and administered orally at a concentration of 10 mg/kg daily for 21 days or intradermally at a concentration of 3 μM. LX-5701 was mixed in PBS and administered orally at a concentration of 360 mg/kg daily for 21 days. LX-6807 was mixed in saline and administered intraperitoneally at a concentration of 1 mg/kg daily for 21 days. The control group received only the solution in the same volume. After the end of drug administration, the methods described in each example below were performed.
The amounts of urea and creatinine, markers of kidney damage, were measured spectrophotometrically in serum collected from mice using the same method as in Examples 7-8 of WO2023-085787 A1. […] The amount of each factor after aging was calculated as 100% and compared with the amount of each factor after treatment with the test compound.

[4] = system: SHR/Izm rats; experiment: Geriatric hypertension in SHR/Izm rats (p16 mRNA, blood pressure), Example 30, Table 54; type: in vivo, rat; settings: for Blood pressure: tail cuff, untreated 195 (±13.3); for p16 mRNA: thoracic aorta, untreated 100%
Method: Ten-week-old male SHR/Izm rats (SLC), a model of essential hypertension, were acclimated to the experimental environment for one week. […] The control group received only the solution in the same volume. After drug administration, the blood pressure of the experimental animals was measured, and RNA was extracted from the thoracic aorta in the same manner as in Example 7-2 of WO2023-085787 A1. The synthesized cDNA was used for qRT-PCR. Blood pressure measurements were performed three times using a blood pressure monitor (IITC) after the animals were allowed to rest for approximately 10 minutes in a measuring holder with a cuff attached to the caudal vein. […] The mRNA levels after aging were calculated as 100% and compared with the mRNA levels of p16 after treatment with the test compound.

| Molecule | Femur Ctsk mRNA [1] [%] | Heart Sur2a mRNA [1] [fold] | Joint Col2a1 mRNA [1] [fold] | Kidney Agtr1a mRNA [1] [%] | Liver IL6 mRNA [1] [%] | Liver MMP3 mRNA [1] [%] | Liver p16 mRNA [1] [%] | Open Field Test Time in Center [1] [%] | Skin Col1a1 mRNA [1] [Fold] | Skin SDF1 mRNA [1] [fold] | Muscle Mass [1] [g] | Fat Mass [1] [g] | Cataract incidence [1] [%] | Open Field Test Time in Center [2] | Agtr1a mRNA [3] | Creatinine [3] | Urea [3] | Blood pressure [4] | p16 mRNA [4] |
| --- | --- | --- | --- | --- | --- | --- | --- | --- | --- | --- | --- | --- | --- | --- | --- | --- | --- | --- | --- |
| O=C(C(C[N+](=O)[O-])=NO)N1CCN(C(c2ccc(Cl)cc2)c2ccc(Cl)cc2)CC1 [LX-403] | 22 | 2.9 | 3.4 | 64 | 53 | 45 | 34 | 237 | 2.8 | 2.7 | 0.76 | 0.98 | 64 | – | – | – | – | – | – |
| COC(=O)c1ccc([C@H]2c3[nH]c4ccccc4c3C[C@H](C(=O)OC)N2C(=O)CCl)cc1 [LX-405] | – | – | – | – | – | – | – | – | – | – | – | – | – | 201.5 (±18.3) % | – | – | – | – | – |
| S=C(N/N=C1\CCCc2cccnc21)N1CCN(c2ccccn2)CC1 [LX-801] | 70 | 2.8 | 2.7 | 55 | 64 | 35 | 53 | 222 | 2.1 | 2.1 | 0.77 | 1.09 | 57 | 241.8 (±17.9) % | – | – | – | – | – |
| C[C@@H]1CC[C@@]23C[C@H](O)C(=O)[C@@]2(O)[C@]1(C)[C@H](OC(=O)CCl)C[C@@H](C1=CCn2c(=O)n(-c4ccccc4)c(=O)n2C1)[C@@H]3C [LX-1801, (2S,3aS,4S,5R,7R,8S,8aS,11R)-7-(1,3-Dioxo-2-phenyl-2,3,5,8-tetrahydro-1H-[1,2,4]triazolo[1,2-a]pyridazin-6-yl)-2,3a-dihydroxy-4,8,11-trimethyl-3-oxooctahydro-1H-4,8a-propanoazulen-5-yl 2-Chloroacetate] | 69 | 2.7 | 2.6 | 48 | 53 | 49 | 42 | 287 | 1.9 | 2.2 | 0.78 | 1.16 | 35 | 252.9 (±28) % | – | – | – | – | – |
| CC1(C)CC[C@]2(NC(=O)C(C)(F)F)CC[C@]3(C)[C@H](C(=O)C=C4[C@@]5(C)C=C(C#N)C(=O)C(C)(C)[C@@H]5CC[C@]43C)[C@@H]2C1 [LX-2101, Omaveloxolone] | – | – | – | – | – | – | – | – | – | – | – | – | – | 215.3 (±30.8) % | – | – | – | – | – |
| CCCC\C=C/C=C/C=C\CCCCCCCC(=O)O [LX-2707, Punicic acid] | – | – | – | – | – | – | – | – | – | – | – | – | – | – | 62 (±3.8) % | 75 (±5.3) % | 80 (±3.3) % | 160.1 (±23.1) mmHg | 64 (±8.5) % |
| COC(=O)[C@H]1Cc2c([nH]c3ccccc23)[C@H](c2ccc(S(C)(=O)=O)cc2)N1C(=O)CCl [LX-5401, methyl (1S,3R)-2-(2-chloroacetyl)-1-(4-(methylsulfonyl)phenyl)-2,3,4,9-tetrahydro-1H-pyrido[3,4-b]indole-3-carboxylate] | 42 | 1.7 | 1.6 | 73 | 55 | 81 | 73 | 179 | – | – | 0.69 | 0.89 | 77 | – | – | – | – | – | – |
| C#CC(=O)N1[C@@H](CCCC)Cc2cc(OC)ccc2[C@@H]1c1ccc(NC23CC4CC(CC(C4)C2)C3)cc1 [LX-5411] | 71 | 2.5 | 2.0 | 68 | 63 | 58 | 65 | 214 | 1.6 | 1.9 | 0.74 | 1.21 | 52 | – | – | – | – | – | – |
| O=C1C2CCN(CC2)C1CNC(=O)C(F)(F)F (stereo not drawn) [LX-5701] | – | – | – | – | – | – | – | – | – | – | – | – | – | – | 60 (±10.4) % | 80 (±5.0) % | 75 (±5.9) % | 159.8 (±15.5) mmHg | 73 (±5.2) % |
| Cc1cccc([C@H](C)c2cnc[nH]2)c1C [LX-6807, Dexmedetomidine] | – | – | – | – | – | – | – | – | – | – | – | – | – | – | 43 (±3.0) % | 73 (±2.7) % | 72 (±5.8) % | 157.8 (±19.3) mmHg | 66 (±5.0) % |
| Tocofersolan [LX-3001] | – | – | – | – | – | – | – | – | – | – | – | – | – | – | 70 (±5.8) % | 85 (±4.4) % | 76 (±2.8) % | 172.9 (±14.6) mmHg | 71 (±3.6) % |
